In patent US20220098646A1, “DETECTION METHOD OF PAN-RESISTANT K. PNEUMONIAE, SCREENING METHOD OF ANTIMICROBIAL AGENTS, AND RECORDING MEDIA AND DATABASE” (TEIKYO UNIVERSITY, priority 2019, published 2022):
Values after ≈ are worked out from the molar mass of the structure shown.

Tested on: K. pneumoniae TK1401
Assay: Antimicrobial susceptibility testing, MicroScan WalkAway apparatus
Assay type: cell-based, Klebsiella pneumoniae
Details: K. pneumoniae isolate TK1401; MicroScan WalkAway; CLSI M100-S24 breakpoints
Procedure: (§1) Testing was performed using a MicroScan WalkAway apparatus (Beckman Coulter, Brea, Calif., USA). The minimal inhibitory concentration (MIC) of colistin was confirmed using the Etest (bioMérieux, Marcy l'Etoile, France) and the broth microdilution method. Antimicrobial susceptibility was defined according to breakpoints listed in the Clinical and Laboratory Standards Institute (CLSI) guidelines (M100-S24).

| Compound | Minimum inhibitory concentration [mg/L] |
| --- | --- |
| CO/N=C(\C(=O)N[C@@H]1C(=O)N2C(C(=O)O)=C(COC(C)=O)CS[C@H]12)c1csc(N)n1 [Cefotaxim] | >2 |
| CO[C@@]1(NC(=O)CSCC#N)C(=O)N2C(C(=O)O)=C(CSc3nnnn3C)CS[C@@H]21 [Cefmerazole] | >32 |
| Gentamicin | >8 |

Same assay, conditions: Klebsiella pneumoniae; K. pneumoniae isolate TK1401; MicroScan WalkAway; CLSI M100-S24 breakpoints; read-out: Minimum inhibitory concentration

| Compound | MIC [µg/mL] |
| --- | --- |
| C=CC1=C(C(=O)O)N2C(=O)[C@@H](NC(=O)/C(=N\O)c3csc(N)n3)[C@H]2SC1 [Cefdinir] | > 2 |
| CO/N=C(\C(=O)N[C@@H]1C(=O)N2C(C(=O)[O-])=C(C[N+]3(C)CCCC3)CS[C@H]12)c1csc(N)n1 [Cefepime] | > 2 |
| C[C@@H](O)[C@H]1C(=O)N2C(C(=O)O)=C(SCCN=CN)C[C@H]12 [Imipenem] | > 8 |
| N[C@@H](C(=O)N[C@@H]1C(=O)N2C(C(=O)O)=C(Cl)CS[C@H]12)c1ccccc1 [Cefaclor] | > 16 |
| CC(C)(O/N=C(\C(=O)N[C@@H]1C(=O)N2C(C(=O)[O-])=C(C[n+]3ccccc3)CS[C@H]12)c1csc(N)n1)C(=O)O [Ceftazidime] | > 16 |
| C[C@@H](O)[C@H]1C(=O)N2C(C(=O)O)=C(S[C@@H]3CN[C@H](C(=O)N(C)C)C3)[C@H](C)[C@H]12 [Meropenem] | > 8 |
| C[C@H]1COc2c(N3CCN(C)CC3)c(F)cc3c(=O)c(C(=O)O)cn1c23 [Levofloxacin] | > 4 |
| COCC1=C(C(=O)O)N2C(=O)[C@@H](NC(=O)/C(=N\OC)c3csc(N)n3)[C@H]2SC1 [Cefpodoxime] | > 4 |
| CC1(C)S[C@@H]2[C@H](NC(=O)[C@H](N)c3ccc(O)cc3)C(=O)N2[C@H]1C(=O)O [Amoxicillin] | > 16 |
| CO/N=C(\C(=O)N[C@@H]1C(=O)N2C(C(=O)[O-])=C(C[n+]3ccn4ncccc43)CS[C@H]12)c1nsc(N)n1 [Cefozopran] | > 16 |
| NCC[C@H](O)C(=O)N[C@@H]1C[C@H](N)[C@@H](O[C@H]2O[C@H](CN)[C@@H](O)[C@H](O)[C@H]2O)[C@H](O)[C@H]1O[C@H]1O[C@H](CO)[C@@H](O)[C@H](N)[C@H]1O [Amikacin] | > 32 |
| CC1(C)S[C@@H]2[C@H](NC(=O)[C@H](N)c3ccccc3)C(=O)N2[C@H]1C(=O)O [Ampicillin] | > 16 |
| NC[C@H]1O[C@H](O[C@H]2[C@H](O)[C@@H](O[C@H]3O[C@H](CO)[C@@H](O)[C@H](N)[C@H]3O)[C@H](N)C[C@@H]2N)[C@H](N)C[C@@H]1O [Tobramycin] | > 8 |
| Cc1nnc(SCC2=C(C(=O)O)N3C(=O)[C@@H](NC(=O)Cn4cnnn4)[C@H]3SC2)s1 [Cefazolin] | > 16 |
| CO/N=C(\C(=O)N[C@@H]1C(=O)N2C(C(=O)O)=C(CSc3nc(=O)c(=O)[nH]n3C)CS[C@H]12)c1csc(N)n1 [Ceftriaxone] | > 16 |
| C[C@@H](O)[C@H]1C(=O)N2C(C(=O)O)=C(S[C@@H]3CN[C@H](CNS(N)(=O)=O)C3)[C@H](C)[C@H]12 [Doripenem] | > 8 |
| CCN1CCN(C(=O)N[C@@H](C(=O)N[C@@H]2C(=O)N3[C@@H]2SC(C)(C)[C@@H]3C(=O)O)c2ccccc2)C(=O)C1=O [Piperacillin] | > 64 |
| CO[C@@]1(NC(=O)CSC(F)F)C(=O)N2C(C(=O)O)=C(CSc3nnnn3CCO)CO[C@@H]21 [Flomoxef] | > 32 |
| CN(C)CCn1nnnc1SCC1=C(C(=O)O)N2C(=O)[C@@H](NC(=O)Cc3csc(N)n3)[C@H]2SC1 [Cefotiam] | > 16 |

Same assay, conditions: breakpoints of CLSI guidelines M100-S24

| Compound | Antimicrobial susceptibility of the isolate (in words) |
| --- | --- |
| C[C@@H]1O[C@@H]1P(=O)(O)O [Fosfomycin] | not susceptible |

Tested on: K. pneumoniae TK1401
Assay: Antimicrobial susceptibility testing, broth microdilution method
Assay type: cell-based, Klebsiella pneumoniae
Details: K. pneumoniae isolate TK1401; broth microdilution method (footnote b)
Procedure: as §1

| Compound | Minimum inhibitory concentration [mg/L] |
| --- | --- |
| Colistin | 64 |
| Polymyxin B | 64 |

Same assay, conditions: Klebsiella pneumoniae, TK1401, read-out: Minimum inhibitory concentration

| Compound | MIC [µg/mL] |
| --- | --- |
| CN(C)c1cc(NC(=O)CNC(C)(C)C)c(O)c2c1C[C@H]1C[C@H]3[C@H](N(C)C)C(O)=C(C(N)=O)C(=O)[C@@]3(O)C(O)=C1C2=O [Tigecycline] | 16 (≈ 27.3 µM) |

Same assay, conditions: Klebsiella pneumoniae; K. pneumoniae isolate TK1401; broth microdilution method (footnote b); read-out: Minimum inhibitory concentration

| Compound | MIC [µg/mL] |
| --- | --- |
| C[C@@H]1O[C@@H]1P(=O)(O)O [Fosfomycin] | > 256 |
| CN(C)c1ccc(O)c2c1C[C@H]1C[C@H]3[C@H](N(C)C)C(O)=C(C(N)=O)C(=O)[C@@]3(O)C(O)=C1C2=O [Minocycline] | 256 (≈ 560 µM) |
| NCC[C@H](O)C(=O)N[C@@H]1C[C@H](N)[C@@H](O[C@H]2O[C@H](CN)CC[C@H]2N)[C@H](O)[C@H]1O[C@H]1O[C@H](CO)[C@@H](O)[C@H](N)[C@H]1O [Arbekacin] | > 256 |
| O=C(N[C@H](CO)[C@H](O)c1ccc([N+](=O)[O-])cc1)C(Cl)Cl [Chloramphenicol] | > 256 |
